Test results reported in PubChem BioAssay AID248 (DTP/NCI, 2004).
Toxic doses and inconclusive results are not listed. No stated cut-off is given here; in the data, active means T/C of 150% or more; inactive means T/C below 125%.

System: L1210 leukemia ip in BDF1 mice, survival T/C
Assay: NCI In Vivo Anticancer Drug Screen. Data for tumor model L1210 Leukemia (intraperitoneal) in B6D2F1 (BDF1) mice
Details: endpoint: mean survival time, higher = longer survival
How it was run: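 Read-out is survival time, reported as the treated-group measurement over the vehicle-control measurement.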

[1] = dose: 100.0 mg/kg/injection, schedule: Q01DX001 (ip), vehicle: saline with Tween-80
[2] = dose: 100.0 mg/kg/injection, schedule: Q01DX009 (ip), vehicle: Klucel (hydroxypropylcellulose) (HPC)
[3] = dose: 100.0 mg/kg/injection, schedule: Q04DX003 (ip), vehicle: Klucel (hydroxypropylcellulose) (HPC)
[4] = dose: 200.0 mg/kg/injection, schedule: Q01DX009 (ip), vehicle: Klucel (hydroxypropylcellulose) (HPC)
[5] = dose: 200.0 mg/kg/injection, schedule: Q04DX003 (ip), vehicle: Klucel (hydroxypropylcellulose) (HPC)
[6] = dose: 400.0 mg/kg/injection, schedule: Q01DX009 (ip), vehicle: Klucel (hydroxypropylcellulose) (HPC)
[7] = dose: 400.0 mg/kg/injection, schedule: Q04DX003 (ip), vehicle: Klucel (hydroxypropylcellulose) (HPC)
[8] = dose: 25.0 mg/kg/injection, schedule: Q01DX001 (ip), vehicle: saline with Tween-80
[9] = dose: 50.0 mg/kg/injection, schedule: Q01DX001 (ip), vehicle: saline with Tween-80
[10] = dose: 100.0 mg/kg/injection, schedule: Q01DX001 (ip), vehicle: saline
[11] = dose: 200.0 mg/kg/injection, schedule: Q01DX001 (ip), vehicle: saline
[12] = dose: 400.0 mg/kg/injection, schedule: Q01DX001 (ip), vehicle: saline
[13] = dose: 100.0 mg/kg/injection, schedule: Q01DX001 (ip), vehicle: carboxymethylcellulose (CMC)
[14] = dose: 200.0 mg/kg/injection, schedule: Q01DX001 (ip), vehicle: carboxymethylcellulose (CMC)
[15] = dose: 100.0 mg/kg/injection, schedule: Q04DX003 (ip), vehicle: saline
[16] = dose: 200.0 mg/kg/injection, schedule: Q04DX003 (ip), vehicle: saline
[17] = dose: 400.0 mg/kg/injection, schedule: Q04DX003 (ip), vehicle: saline
[18] = dose: 100.0 mg/kg/injection, schedule: Q01DX009 (ip), vehicle: saline
[19] = dose: 200.0 mg/kg/injection, schedule: Q01DX009 (ip), vehicle: saline
[20] = dose: 400.0 mg/kg/injection, schedule: Q01DX009 (ip), vehicle: saline

Measured: T/C

S=C(Cc1ccc2ccccc2c1)N1CCOCC1
inactive: dose: 25.0 mg/kg/injection, schedule: Q01DX009 (ip), vehicle: saline sonified 94 % of control | dose: 50.0 mg/kg/injection, schedule: Q01DX009 (ip), vehicle: saline sonified 100 % of control | [1] 105 % of control | dose: 100.0 mg/kg/injection, schedule: Q01DX009 (ip), vehicle: saline sonified 96 % of control

Cc1ccc(C)c(OC(=O)NC2CCCCC2)c1
inactive: [2] 93 % of control | [3] 101 % of control | [4] 92 % of control | [5] 104 % of control | [6] 95 % of control | [7] 98 % of control

N#Cc1nccnc1Cl
inactive: dose: 12.5 mg/kg/injection, schedule: Q04DX003 (ip), vehicle: saline with Tween-80 96 % of control | dose: 25.0 mg/kg/injection, schedule: Q01DX009 (ip), vehicle: other 95 % of control | dose: 25.0 mg/kg/injection, schedule: Q04DX003 (ip), vehicle: saline with Tween-80 99 % of control | dose: 50.0 mg/kg/injection, schedule: Q01DX009 (ip), vehicle: other 93 % of control | dose: 50.0 mg/kg/injection, schedule: Q04DX003 (ip), vehicle: saline with Tween-80 86 % of control | dose: 100.0 mg/kg/injection, schedule: Q01DX009 (ip), vehicle: other 109 % of control

CCCn1ncc(=O)[nH]c1=O
inactive: dose: 50.0 mg/kg/injection, schedule: Q01DX009 (ip), vehicle: saline with Tween-80 96 % of control | dose: 100.0 mg/kg/injection, schedule: Q01DX009 (ip), vehicle: saline with Tween-80 112 % of control | dose: 200.0 mg/kg/injection, schedule: Q01DX009 (ip), vehicle: saline with Tween-80 103 % of control

CC(=O)OC1OC(CS[As](C)C)C(OC(C)=O)C(OC(C)=O)C1OC(C)=O (stereo not given)
inactive: [3] 94 % of control | [5] 105 % of control

O=C(O)C(Oc1ccccc1)Oc1ccccc1
inactive: dose: 50.0 mg/kg/injection, schedule: Q01DX001 (ip), vehicle: alkali diluted with saline 100 % of control | dose: 100.0 mg/kg/injection, schedule: Q01DX001 (ip), vehicle: alkali diluted with saline 96 % of control | dose: 200.0 mg/kg/injection, schedule: Q01DX001 (ip), vehicle: alkali diluted with saline 100 % of control | dose: 400.0 mg/kg/injection, schedule: Q01DX001 (ip), vehicle: alkali diluted with saline 96 % of control

N#Cc1c(Br)n(C2OC(CO)C(O)C2O)c2ncncc12 (stereo not given)
inactive: dose: 100.0 mg/kg/injection, schedule: Q01DX005 (ip), vehicle: saline 114 % of control | dose: 200.0 mg/kg/injection, schedule: Q01DX005 (ip), vehicle: saline 114 % of control

O=c1[nH]cc(S(=O)(=O)Nc2ccccc2)c(=O)[nH]1
inactive: [8] 106 % of control | [9] 103 % of control | [1] 103 % of control

Nc1ncc(C[P+](c2ccccc2)(c2ccccc2)c2ccccc2)c(N)n1
inactive: dose: 12.5 mg/kg/injection, schedule: Q04DX003 (ip), vehicle: Klucel (hydroxypropylcellulose) (HPC) 102 % of control | dose: 25.0 mg/kg/injection, schedule: Q04DX003 (ip), vehicle: Klucel (hydroxypropylcellulose) (HPC) 112 % of control | dose: 50.0 mg/kg/injection, schedule: Q04DX003 (ip), vehicle: Klucel (hydroxypropylcellulose) (HPC) 105 % of control

CC(=O)OC1OCC(COC(=O)c2ccc([N+](=O)[O-])cc2)C1OC(=O)c1ccc([N+](=O)[O-])cc1 (stereo not given)
inactive: [10] 92 % of control | [11] 92 % of control | [12] 95 % of control

CC1(C)Oc2c(ccc(O)c2CN2CCCCC2)C2=C1CCCC2
inactive: [10] 89 % of control

Oc1ccc(Br)cc1/C=N\NC(=S)Nc1ccc2cn[nH]c2c1
inactive: dose: 25.0 mg/kg/injection, schedule: Q01DX001 (ip), vehicle: carboxymethylcellulose (CMC) 90 % of control | dose: 50.0 mg/kg/injection, schedule: Q01DX001 (ip), vehicle: carboxymethylcellulose (CMC) 101 % of control | [13] 93 % of control | [14] 86 % of control | dose: 400.0 mg/kg/injection, schedule: Q01DX001 (ip), vehicle: carboxymethylcellulose (CMC) 107 % of control

N#CCc1cn(-c2ccccc2)nn1
inactive: dose: 9.38 mg/kg/injection, schedule: Q01DX001 (ip), vehicle: other 101 % of control | dose: 18.75 mg/kg/injection, schedule: Q01DX001 (ip), vehicle: other 96 % of control | dose: 37.5 mg/kg/injection, schedule: Q01DX001 (ip), vehicle: other 97 % of control

Cc1ccc2c(c1)CN(Cc1ccccc1)CO2
inactive: dose: 75.0 mg/kg/injection, schedule: Q01DX009 (ip), vehicle: saline 89 % of control | dose: 150.0 mg/kg/injection, schedule: Q01DX009 (ip), vehicle: saline 94 % of control | [5] 103 % of control | dose: 300.0 mg/kg/injection, schedule: Q01DX009 (ip), vehicle: saline 102 % of control | [7] 97 % of control

CCOc1ccc(N(O)C(C)=O)cc1
inactive: [15] 91 % of control | [16] 100 % of control | [17] 96 % of control

CCOC(=O)NC(=O)CC
inactive: [18] 100 % of control | [15] 98 % of control | [19] 110 % of control | [16] 98 % of control | [20] 110 % of control | [17] 98 % of control

NCS(=O)(=O)O
inactive: [8] 107 % of control | [9] 107 % of control | [2] 98 % of control | [18] 100 % of control | [4] 98 % of control | [19] 93 % of control | [6] 95 % of control | [20] 88 % of control

Cc1ccc(S(=O)(=O)NCCN)cc1
inactive: [15] 97 % of control | [16] 97 % of control

[Cl][Pd]([Cl])([Cl])[Cl]
inactive: dose: 12.5 mg/kg/injection, schedule: Q04DX003 (ip), vehicle: saline 95 % of control | dose: 25.0 mg/kg/injection, schedule: Q04DX003 (ip), vehicle: saline 98 % of control | dose: 50.0 mg/kg/injection, schedule: Q04DX003 (ip), vehicle: saline 102 % of control | [15] 90 % of control

CC/C(=N/Nc1ccc([N+](=O)[O-])cc1[N+](=O)[O-])c1cccs1
inactive: [13] 100 % of control | [14] 97 % of control

Cc1nc2ncnc(Cl)c2[nH]1
inactive: [10] 103 % of control | [11] 106 % of control | [12] 100 % of control

O=C1CCCN1Cl
inactive: [1] 96 % of control | dose: 200.0 mg/kg/injection, schedule: Q01DX001 (ip), vehicle: saline with Tween-80 96 % of control | dose: 400.0 mg/kg/injection, schedule: Q01DX001 (ip), vehicle: saline with Tween-80 96 % of control

N#Cc1nc(C#N)c(C#N)nc1C#N
inactive: dose: 6.25 mg/kg/injection, schedule: Q01DX009 (ip), vehicle: Klucel (hydroxypropylcellulose) (HPC) 105 % of control | dose: 12.5 mg/kg/injection, schedule: Q01DX009 (ip), vehicle: Klucel (hydroxypropylcellulose) (HPC) 100 % of control | dose: 25.0 mg/kg/injection, schedule: Q01DX009 (ip), vehicle: Klucel (hydroxypropylcellulose) (HPC) 94 % of control | dose: 50.0 mg/kg/injection, schedule: Q01DX009 (ip), vehicle: Klucel (hydroxypropylcellulose) (HPC) 97 % of control
